This passage reports viability results from publication PMC12040169 (PLOS Biology, 2025).

The data set is described as follows: in vitro. Conditions: human, hela cells, % viability.
As to `CC(C)(C)CC(=O)N[C@H]1C[C@H]2C(=O)Nc3ccccc3C(=O)N2C1` [CBK289352], the viability (as a rule, a read-out of living cells in per cent, often relative to untreated cells) at 28.5 h, 10 µM is 96.2%.
With `COCC(=O)N[C@H]1C[C@H]2C(=O)Nc3ccccc3C(=O)N2C1` [CBK289353], the viability at 28.5 h, 10 µM turned out to be 91.7%.
Next, `O=C(N[C@H]1C[C@H]2C(=O)Nc3ccccc3C(=O)N2C1)c1ccccc1` [CBK289354]: 103%; `COc1ccc(C(=O)N[C@H]2C[C@H]3C(=O)Nc4ccccc4C(=O)N3C2)cc1` [CBK289355]: 84.7%; `CS(=O)(=O)N[C@H]1C[C@H]2C(=O)Nc3ccc(-c4cccs4)cc3C(=O)N2C1` [CBK289359]: 95.7%.
Take `COCC(=O)N[C@H]1C[C@H]2C(=O)Nc3ccc(-c4ccsc4)cc3C(=O)N2C1` [CBK289360]: the viability at 28.5 h, 10 µM amounted to 96.6%.
In the case of `O=C(N[C@H]1C[C@H]2C(=O)Nc3ccc(-c4ccsc4)cc3C(=O)N2C1)c1ccccc1` [CBK289361] it was 91%; in that of `CC(C)NC(=O)N1CC[C@H](c2nc3ncccc3[nH]2)C1` [CBK289369], 101%.
Next, `Cc1ccc2oc([C@H]3CCN(S(C)(=O)=O)C3)nc2c1` [CBK289371]: 97.2%; `O=C(NC1CCCCC1)N1CC[C@H](c2nc3ccccc3o2)C1` [CBK289372]: 88.4%.
In the case of `CS(=O)(=O)N1CC[C@H](c2nc3ccccc3s2)C1` [CBK289374] it was 77.8%; in that of `Cc1ccc2[nH]c([C@H]3CCN(C(=O)NC(C)C)C3)nc2c1` [CBK289375], 90.8%.
Consider `O=C(c1cncnc1)N1CC[C@H](c2nc3cc(F)ccc3[nH]2)C1` [CBK289376], for which the viability at 28.5 h, 10 µM was determined as 96.8%.
Next, `COc1ccc2[nH]c([C@H]3CCN(S(C)(=O)=O)C3)nc2c1` [CBK289377]: 111%.
In the case of `N#Cc1ccc2nc([C@H]3CCN(C(=O)c4ccccc4)C3)[nH]c2c1` [CBK289379] it was 92.4%.
Next, `N#Cc1ccc2nc([C@H]3CCN(C(=O)C4CCCCC4)C3)[nH]c2c1` [CBK289380]: 90%.
Take `CCS(=O)(=O)c1ccc2oc([C@H]3CCN(S(=O)(=O)c4ccccc4)C3)nc2c1` [CBK289382]: the viability at 28.5 h, 10 µM was found to be 88.2%.
On to `CN1CC[C@H](c2nc3ncccc3[nH]2)C1` [CBK289384], for which the viability at 28.5 h, 10 µM was 76.8%.
In the case of `CS(=O)(=O)c1ccc(CN2CC[C@H](c3nc4ncccc4[nH]3)C2)cc1` [CBK289385] it was 101%; in that of `Cc1ccc2oc([C@H]3CCN(Cc4ccc(C(=O)O)cc4)C3)nc2c1` [CBK289386], 100%; in that of `c1ccc2sc([C@H]3CCNC3)nc2c1` [CBK289389], 91.2%.
In the case of `Cc1nnc([C@H]2CCN(Cc3ccc(F)cc3)C2)o1` [CBK289391], the viability at 28.5 h, 10 µM amounted to 88.4%.
For `Cc1nnc([C@H]2CCN(Cc3ccc4c(c3)OCO4)C2)o1` [CBK289392], the viability at 28.5 h, 10 µM is 111%.
For the molecule `N#Cc1cccc(CN2CC[C@H](c3nnc(-c4ccco4)o3)C2)c1` [CBK289394], the viability at 28.5 h, 10 µM worked out at 92.5%.
Regarding `CC(=O)N1CCC(N2CC[C@H](c3nnc(-c4ccco4)o3)C2)CC1` [CBK289395], the viability at 28.5 h, 10 µM is 86.9%.
Turning to `c1ccc(CN2CC[C@H](c3nnc(-c4cccnc4)o3)C2)cc1` [CBK289397], the viability at 28.5 h, 10 µM is 85.6%.
Regarding `c1cncc(-c2nnc([C@H]3CCN(C4CCOCC4)C3)o2)c1` [CBK289398], the viability at 28.5 h, 10 µM turned out to be 93.5%.
As to `COc1ccc(-c2nnc([C@H]3CCN(Cc4cccc(C#N)c4)C3)o2)cc1` [CBK289400], the viability at 28.5 h, 10 µM was determined as 94.8%.
As to `COc1ccc(-c2nnc([C@H]3CCN(Cc4ccccn4)C3)o2)cc1` [CBK289401], the viability at 28.5 h, 10 µM amounted to 93.4%.
As for `CC(=O)N1CCC(N2CC[C@H](c3nnc(C(C)(C)C)o3)C2)CC1` [CBK289404], the viability at 28.5 h, 10 µM was determined as 82.4%.
In the case of `Cc1ccc(S(=O)(=O)N2CC[C@H](c3nnc(-c4ccccc4)o3)C2)cc1` [CBK289405] it was 111%; in that of `CC(C)(C)c1nnc([C@H]2CCN(C(=O)CCC(=O)O)C2)o1` [CBK289406], 96.1%; in that of `CN(C)c1ccc(-c2nnc([C@H]3CCN(C(=O)c4ccccc4)C3)o2)cc1` [CBK289407], 85.7%.
Next, `COCC(=O)N1CC[C@H](c2nnc(-c3ccc(C)cc3)o2)C1` [CBK289410]: 114%.
On to `Cc1ccc(-c2nnc([C@H]3CCN(C(=O)NCc4ccccc4)C3)o2)cc1` [CBK289411], for which the viability at 28.5 h, 10 µM amounted to 93%.
Consider `O=C(C1CCCCC1)N1CC[C@H](c2nnc(-c3cccnc3)o2)C1` [CBK289412], for which the viability at 28.5 h, 10 µM turned out to be 103%.
Consider `CC(=O)N1CC[C@H](c2nc3cccc(C(N)=O)c3[nH]2)C1` [CBK289415], for which the viability at 28.5 h, 10 µM is 98.3%.
For `Cn1c([C@H]2CCN(C(=O)c3cnccn3)C2)nc2ccccc21` [CBK289416], the viability at 28.5 h, 10 µM is 110%.
As to `CC(C)C[C@@H]1N[C@H](C(=O)NC2CCC2)Cc2cn(Cc3nccn3C)c3cccc1c23` [CBK289422], the viability at 28.5 h, 10 µM came to 101%.
Next, `CC(C)C[C@@H]1N[C@H](C(=O)NC2CC2)Cc2cn(Cc3nccn3C)c3cccc1c23` [CBK289423]: 108%; `C#CCNC(=O)[C@@H]1Cc2cn(Cc3cc(C)on3)c3cccc(c23)[C@H](CC(C)C)N1` [CBK289426]: 90.4%; `CC(C)C[C@@H]1N[C@H](C(=O)NCC2CCOCC2)Cc2c[nH]c3cccc1c23` [CBK289427]: 103%.
In the case of `C[C@@H]1C(=O)O[C@H]2[C@H]1CC[C@@]1(C)Cc3sc(NC(=O)CCC(=O)O)nc3[C@@H](C)[C@H]21` [CBK289429] it was 98.7%; in that of `C[C@H](C(=O)N1CCCC1)C1CC[C@@]2(C)Cc3sc(NC(=O)C4CC4)nc3[C@@H](C)[C@@H]2[C@H]1O` (stereo partly drawn) [CBK289432], 103%; in that of `CC(=O)N[C@H]1CC[C@]2(C)CCC([C@H](C)C(=O)NC3CCCC3)[C@H](O)[C@H]2[C@@H]1C` (stereo partly drawn) [CBK289436], 79.6%.
In the case of `COC[C@H]1CCCN1C(=O)[C@@H](C)C1CC[C@@]2(C)CC[C@H](NC(C)=O)[C@@H](C)[C@@H]2[C@H]1O` (stereo partly drawn) [CBK289438] it was 110%; in that of `CC(=O)N[C@H]1CC[C@]2(C)CCC([C@H](C)C(=O)N3CCCCC3)[C@H](O)[C@H]2[C@@H]1C` (stereo partly drawn) [CBK289439], 89.4%; in that of `C[C@H]1[C@@H]2[C@@H](O)C([C@H](C)C(=O)N3CCCC3)CC[C@@]2(C)CC[C@@H]1NC(=O)c1ccccc1` (stereo partly drawn) [CBK289441], 106%.
Consider `CCN(CC)C(=O)[C@@H](C)C1CC[C@@]2(C)CC[C@H](NC(=O)C3CC3)[C@@H](C)[C@@H]2[C@H]1O` (stereo partly drawn) [CBK289443], for which the viability at 28.5 h, 10 µM is 97.5%.
In the case of `C[C@H]1[C@@H]2[C@@H](O)C([C@H](C)C(=O)NCc3ccccn3)CC[C@@]2(C)CC[C@@H]1NC(=O)C1CC1` (stereo partly drawn) [CBK289445] it was 97.2%.
In the case of `C[C@H]1[C@@H]2[C@@H](O)C([C@H](C)C(=O)N3CCCC3)CC[C@@]2(C)CC[C@@H]1NC(=O)c1ccncc1` (stereo partly drawn) [CBK289450] it was 94.8%.
